One assay deals with rat orexin 1 receptor (Rattus norvegicus, UniProt P56718). Description: Rat orexin 1 receptor radioligand binding. The following applies: HEK293 cells stably expressing rat orexin 1 receptor; apparent Ki; read-out: rOX1 Ki. In outline: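 Homogenized cell suspensions competed against 4 nM final of a tritiated oxadiazolyl-pyrrolidinyl thiazole methanone radioligand (35.3 Ci/mmol) in PBS, with DMSO ≤0.1%. Nonspecific binding defined with 10 μM almorexant; after washing and drying, bound radioactivity counted by scintillation.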

For a further assay, the target named is human orexin 1 receptor (Homo sapiens, UniProt O43613). Description: Human orexin 1 receptor radioligand binding. Particulars: CHO cells stably expressing human orexin 1 receptor; apparent Ki; read-out: hOX1 Ki. The method, boiled down:
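Homogenized CHO cells stably expressing human orexin 1 receptor, in PBS. They were incubated 60 min at room temperature with 4 nM final tritiated thiazolyl-pyrrolidinyl-methanone radioligand, DMSO ≤0.1%. Nonspecific binding taken with 10 μM almorexant; bound radioactivity collected by GF/C filtration and scintillation-counted.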

Another assay addresses human orexin 2 receptor (Homo sapiens (Human), UniProt O43614). The assay can be described thus: Human orexin 2 receptor radioligand binding ([3H]-EMPA). In outline:
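Competition binding with 2 nM final [3H]-EMPA in PBS against homogenized whole-cell suspension; DMSO ≤0.1%. Nonspecific binding defined with […] almorexant. Plates washed with PBS, dried, and bound radioactivity counted by scintillation.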

[1] abbreviates: HEK293 stably expressing human orexin 2 receptor, [3H]-EMPA, apparent Ki, read-out: hOX2 Ki.

Where a name gives a salt, the structure may show the parent alone. Read-outs that look alike come from different tables or passages of the source.

The values below come from patent US9115117B2, “Substituted piperidine compounds and their use as orexin receptor modulators” (JANSSEN PHARMACEUTICA NV, priority 2013, dated 2015).

Chain of human orexin 2 receptor (O43614 whole entry): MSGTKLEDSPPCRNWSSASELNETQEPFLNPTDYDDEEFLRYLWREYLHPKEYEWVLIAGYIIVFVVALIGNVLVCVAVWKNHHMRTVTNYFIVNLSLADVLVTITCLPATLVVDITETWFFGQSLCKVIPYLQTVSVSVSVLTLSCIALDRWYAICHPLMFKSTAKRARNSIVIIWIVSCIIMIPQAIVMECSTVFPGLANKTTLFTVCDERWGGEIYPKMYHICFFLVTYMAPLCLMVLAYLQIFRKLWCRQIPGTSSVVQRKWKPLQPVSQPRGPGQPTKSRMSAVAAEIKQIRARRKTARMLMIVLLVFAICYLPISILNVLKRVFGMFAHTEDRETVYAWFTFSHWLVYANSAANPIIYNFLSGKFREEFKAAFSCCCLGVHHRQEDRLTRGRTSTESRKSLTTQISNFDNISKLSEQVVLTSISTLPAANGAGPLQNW

On to `Cc1ccc(C(=O)N2CCC[C@@H](Nc3cnc(C(F)(F)F)cn3)[C@@H]2C)c(-n2nccn2)c1` [Example 79, (4-methyl-2-(2H-1,2,3-triazol-2-yl)phenyl)((2S,3R)-2-methyl-3-((5-(trifluoromethyl)pyrazin-2-yl)amino)piperidin-1-yl)methanone], for which the figures for the Ki at rat orexin 1 receptor, on human orexin 1 receptor and at human orexin 2 receptor (setting [1]) were 8 nM, 7 nM and 1300 nM, respectively.

Turning to `C[C@H]1[C@H](Nc2ccc(C(F)(F)F)nn2)CCCN1C(=O)c1ccccc1-n1nccn1` (racemic) [Example 33, (±)-trans-(2-(2H-1,2,3-triazol-2-yl)phenyl)(2-methyl-3-((6-(trifluoromethyl)pyridazin-3-yl)amino)piperidin-1-yl)methanone hydrochloride], the Ki worked out at 199 nM at rat orexin 1 receptor, 160 nM at human orexin 1 receptor and 4800 nM on human orexin 2 receptor (setting [1]).

As to `Cc1cnc(C(=O)N2CCC[C@@H](Nc3nc4ccccc4o3)[C@@H]2C)c(-n2nccn2)c1` [Example 73, ((2S,3R)-3-(benzo[d]oxazol-2-ylamino)-2-methylpiperidin-1-yl)(5-methyl-3-(2H-1,2,3-triazol-2-yl)pyridin-2-yl)methanone], the Ki on rat orexin 1 receptor amounted to 7 nM; at human orexin 1 receptor it was 21 nM; on human orexin 2 receptor (setting [1]), 1890 nM.

`Cc1ccc(C(=O)N2CCC[C@@H](Nc3cnc(C(F)(F)F)cn3)[C@@H]2C)c(-n2nccn2)n1` [Example 74, (6-methyl-2-(2H-1,2,3-triazol-2-yl)pyridin-3-yl)((2S,3R)-2-methyl-3-((5-(trifluoromethyl)pyrazin-2-yl)amino)piperidin-1-yl)methanone]: the Ki at rat orexin 1 receptor was 40 nM; on human orexin 1 receptor, 52 nM; at human orexin 2 receptor, above 10000 nM.

In the case of `Cc1ccc(C(=O)N2CCC[C@@H](Oc3ncc(C(F)(F)F)cn3)[C@@H]2C)c(-n2nccn2)c1` [Example 102, (4-methyl-2-(2H-1,2,3-triazol-2-yl)phenyl)((2S,3R)-2-methyl-3-((5-(trifluoromethyl)pyrimidin-2-yl)oxy)piperidin-1-yl)methanone], the Ki on rat orexin 1 receptor was found to be 28 nM; at human orexin 1 receptor, 25 nM; at human orexin 2 receptor (setting [1]), 5200 nM.

Consider `C[C@H]1[C@H](Nc2nc3cc(Cl)ccc3o2)CCCN1C(=O)c1ccccc1-n1nccn1` (racemic) [Example 45, (±)-trans-(2-(2H-1,2,3-triazol-2-yl)phenyl)(3-((5-chlorobenzo[d]oxazol-2-yl)amino)-2-methylpiperidin-1-yl)methanone], for which the values for the Ki at rat orexin 1 receptor, on human orexin 1 receptor and at human orexin 2 receptor (setting [1]) were 28 nM, 26 nM and 281 nM, respectively.

Consider `Cc1cnc(C(=O)N2CCC[C@@H](Nc3ncc(C(F)(F)F)cn3)[C@@H]2C)c(-n2nccn2)c1` [Example 94, ((2S,3R)-2-methyl-3-((5-(trifluoromethyl)pyrimidin-2-yl)amino)piperidin-1-yl)(5-methyl-3-(2H-1,2,3-triazol-2-yl)pyridin-2-yl)methanone], for which the Ki is 38 nM on rat orexin 1 receptor, 25 nM on human orexin 1 receptor and above 10000 nM on human orexin 2 receptor (setting [1]).

Turning to `Cc1ccc(C(=O)N2CCC[C@@H](Nc3ccc(C(F)(F)F)cn3)[C@@H]2C)c(-n2nccn2)n1` [Example 98, (6-methyl-2-(2H-1,2,3-triazol-2-yl)pyridin-3-yl)((2S,3R)-2-methyl-3-((5-(trifluoromethyl)pyridin-2-yl)amino)piperidin-1-yl)methanone], the Ki was 26 nM on rat orexin 1 receptor, 12 nM on human orexin 1 receptor and above 10000 nM at human orexin 2 receptor (setting [1]).

Consider `Cc1ccc(-c2ncccn2)c(C(=O)N2CCC[C@@H](Nc3cnc(C(F)(F)F)cn3)[C@@H]2C)n1` [Example 84, ((2S,3R)-2-methyl-3-((5-(trifluoromethyl)pyrazin-2-yl)amino)piperidin-1-yl)(6-methyl-3-(pyrimidin-2-yl)pyridin-2-yl)methanone], for which the Ki on rat orexin 1 receptor came to 23 nM; on human orexin 1 receptor it was 28 nM; on human orexin 2 receptor (setting [1]), 173 nM.

Turning to `Cc1ccc(C(=O)N2CCC[C@@H](Nc3nc4ccccc4o3)[C@@H]2C)c(-n2ccnn2)n1` [Example 76, ((2S,3R)-3-(benzo[d]oxazol-2-ylamino)-2-methylpiperidin-1-yl)(6-methyl-2-(1H-1,2,3-triazol-1-yl)pyridin-3-yl)methanone], the Ki amounted to 54 nM on rat orexin 1 receptor, 62 nM at human orexin 1 receptor and 1300 nM on human orexin 2 receptor (setting [1]).

On to `Cc1ccc(C(=O)N2CCC[C@@H](Nc3ncc(C(F)(F)F)cn3)[C@@H]2C)c(-n2nccn2)c1` [Example 71, (4-methyl-2-(2H-1,2,3-triazol-2-yl)phenyl)((2S,3R)-2-methyl-3-((5-(trifluoromethyl)pyrimidin-2-yl)amino)piperidin-1-yl)methanone], for which the Ki at rat orexin 1 receptor stood at 10 nM; at human orexin 1 receptor it was 12 nM; on human orexin 2 receptor (setting [1]), 1500 nM.

Turning to `Cc1cnc(C(=O)N2CCC[C@@H](Nc3nc4ccccc4o3)[C@@H]2C)c(-c2ncco2)c1` [Example 88, ((2S,3R)-3-(benzo[d]oxazol-2-ylamino)-2-methylpiperidin-1-yl)(5-methyl-3-(oxazol-2-yl)pyridin-2-yl)methanone], the Ki at rat orexin 1 receptor was determined as 13 nM; on human orexin 1 receptor, 25 nM; on human orexin 2 receptor (setting [1]), 3300 nM.

Turning to `C[C@H]1[C@H](Nc2cnc(C(F)(F)F)cn2)CCCN1C(=O)c1ccccc1-n1nccn1` [Example 85, (2-(2H-1,2,3-triazol-2-yl)phenyl)((2S,3R)-2-methyl-3-((5-(trifluoromethyl)pyrazin-2-yl)amino)piperidin-1-yl)methanone], the Ki at rat orexin 1 receptor stood at 8 nM; at human orexin 1 receptor, 10 nM; on human orexin 2 receptor (setting [1]), 210 nM.

`Cc1cnc(C(=O)N2CCC[C@@H](Nc3cnc(C(F)(F)F)cn3)[C@@H]2C)c(-n2nccn2)c1` [Example 72, ((2S,3R)-2-methyl-3-((5-(trifluoromethyl)pyrazin-2-yl)amino)piperidin-1-yl)(5-methyl-3-(2H-1,2,3-triazol-2-yl)pyridin-2-yl)methanone]: the Ki came to 24 nM on rat orexin 1 receptor, 33 nM at human orexin 1 receptor and 4020 nM at human orexin 2 receptor (setting [1]).
